Results from US7507727B2, “Substituted quinobenzoxazine analogs and methods of using thereof” (Cylene Pharmaceuticals, Inc., priority 2003, dated 2009).
Where two headings read alike, the source gives them in different places.

Legend:
[1] = target: c-Myc template DNA (c-myc quadruplex); assay: Quadruplex binding / stop assay (Taq polymerase arrest, capillary electrophoresis)
HeLa cells = assay: MTS cell proliferation and/or cytotoxicity assay; format: cell-based, Human
How it was run: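 HeLa cells seeded at 4,500 cells/well, exposed to compounds from day 1 for 3 days at 37 °C, 5% CO2. Viability by MTS/PMS (20:1) with 4 h incubation, absorbance at 490 nm. Values are concentrations giving 50% antiproliferative response.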

[2] = read-out: Stop Data c-Myc μM, concentration at which 50% of the DNA was arrested (arrested:full-length 1:1)
[3] = Homo sapiens, HeLa, 72 h, concentration at which 50% of antiproliferative cell response is seen, 3 days incubation, read-out: MTS Data Hella
[4] = read-out: S DATA, Table 1D, stop assay data
[5] = Homo sapiens, HeLa, HeLa cells, MTS, read-out: Hela MTS

Row | IC50 [1, 2] | IC50 [1, 4] | Compound | IC50 (HeLa cells; [3]) | IC50 (HeLa cells; [5]) | IC50 (HeLa cells; concentration at which 50% of antiproliferative cell response is seen, 3 days incubation, read-out: MTS Data Hella)
1 | 1.75 µM |  | CN1CCCC1CCNC(=O)c1cn2c3c(c(N4CC[C@@H](N)C4)c(F)cc3c1=O)Oc1ccccc1-2 (some centres unmarked) [compound 111] | 220 nM |  | 
2 | 0.25 µM |  | N[C@@H]1CCN(c2c(F)cc3c(=O)c(C(=O)NCCC4CCCN4)cn4c3c2Oc2cc3c(cc2-4)oc2ccccc23)C1 (some centres unmarked) [compound 563] | 310 nM |  | 
3 | 3 µM |  | CCN(CC)CCCC(C)NC(=O)c1cn2c3c(c(N4CCC(c5cnccn5)C4)c(F)cc3c1=O)Oc1ccccc1-2 (centres unmarked) [compound 28] | 2500 nM |  | 
4 | 0.5 µM |  | O=C(NCCN1CCCC1)c1cn2c3cc4oc5cc([N+](=O)[O-])ccc5[nH]c4cc3oc3c(NCCN4CCCC4)c(F)cc(c1=O)c32 [compound 479] | 7400 nM |  | 
5 | 0.375 µM |  | CN1CCN(CCCNC(=O)c2cn3c4cc5c(cc4oc4c(N6CC[C@H](N)C6)c(F)cc(c2=O)c43)c(=O)c2ccccc25)CC1 [compound 520] | 1900 nM |  | 
6 | 0.18 µM |  | CN1CCCC1CCNC(=O)c1cn2c3cc4c(cc3oc3c(N5CC[C@H](N)C5)c(F)cc(c1=O)c32)c(=O)c1ccccc14 (some centres unmarked) [compound 582] | 280 nM |  | 
7 | 0.75 µM |  | CCN(CC)CCCC(C)NC(=O)c1cn2c3c(c(N4CC5CCCNC5C4)c(F)cc3c1=O)Oc1cc3ccccc3cc1-2 (centres unmarked) [compound 385] | 360 nM |  | 
8 | 0.375 µM |  | CN1CCCC1CCNc1c(F)cc2c(=O)c(C(=O)NCCN3CCOCC3)cn3c4cc5c(cc4oc1c23)c(=O)c1ccccc15 (centres unmarked) [compound 517] | 2200 nM |  | 
9 | 0.375 µM |  | CN1CCCC1CCNC(=O)c1cn2c3c(c(N4CCC(CCCC5CCNCC5)CC4)c(F)cc3c1=O)Oc1cc3ccccc3cc1-2 (centres unmarked) [compound 535] | 310 nM |  | 
10 |  | 0.375 µM | O=C(NCCCN1CCOCC1)c1cn2c3c(c(N4CC5CCCNC5C4)c(F)cc3c1=O)Oc1cc3ccccc3cc1-2 (centres unmarked) [compound 1637] |  | 100 nM | 
11 |  | 0.37 µM | N=C(N)NCC1CCCC(CNC(=O)c2cn3c4c(c(N5CCC(N)C5)c(F)cc4c2=O)Oc2cc4ccccc4cc2-3)C1 (centres unmarked) [compound 1649] |  | 2200 nM | 
12 | 3 µM |  | CN1CCCC1CCNC(=O)c1cn2c3c(c(NC[C@H]4CCCO4)c(F)cc3c1=O)Oc1cc3ccccc3cc1-2 (some centres unmarked) [compound 34] | 280 nM |  | 
13 | 0.375 µM |  | CN(C)CC(C)(C)CNC(=O)c1cn2c3c(c(N4CCC(N)C4)c(F)cc3c1=O)Oc1cc3ccccc3cc1-2 (centres unmarked) [compound 531] | 480 nM |  | 
14 |  | 0.75 µM | CN1CCCC1CCNC(=O)c1cn2c3c(c(NCCc4ccc(O)cc4)c(F)cc3c1=O)Oc1cc3ccccc3cc1-2 (centres unmarked) [compound 1681] |  | 2100 nM | 
15 | 0.75 µM |  | N[C@@H]1CCN(c2c(F)cc3c(=O)c(C(=O)NCCN4CCOCC4)cn4c3c2Oc2cc3ccccc3cc2-4)C1 [compound 390] | 240 nM |  | 
16 | 4 µM |  | CN1CCCC1CCNC(=O)c1cn2c3c(c(NC[C@@H]4CCCO4)c(F)cc3c1=O)Oc1cc3ccccc3cc1-2 (some centres unmarked) [compound 26] |  |  | 730 nM
17 | 0.75 µM |  | CN1CCCC1CCNC(=O)c1cn2c3c(c(NCCc4ccc(O)c(O)c4)c(F)cc3c1=O)Oc1cc3ccccc3cc1-2 (centres unmarked) [compound 381] | 1800 nM |  | 
18 | 0.18 µM |  | CN1CCN(CCCNC(=O)c2cn3c4c(c(N5CC[C@@H](NC(=O)CCNCCC6CCCN6C)C5)c(F)cc4c2=O)Oc2cc4c(cc2-3)oc2ccccc24)CC1 (some centres unmarked) [compound 573] | 4500 nM |  | 
19 | 1.75 µM |  | CN(C)CCCCNC(=O)c1cn2c3c(c(N4CC[C@@H](N)C4)c(F)cc3c1=O)Oc1ccccc1-2 [compound 106] | 2500 nM |  | 
20 |  | 2.6 µM | NC1CCN(c2c(F)cc3c(=O)c(C(=O)NCCN4CCCC4)cn4c3c2Oc2cc(Cl)ccc2-4)C1 (centres unmarked) [compound 1800] |  | 180 nM | 
21 | 0.375 µM |  | NCCCCNC(=O)c1cn2c3c(c(N4CC[C@@H](N)C4)c(F)cc3c1=O)Oc1cc3ccccc3cc1-2 [compound 528] | 750 nM |  | 
22 | 0.75 µM |  | CN1CCCC1CCNC(=O)c1cn2c3c(c(NCCCN4CCOCC4)c(F)c(N)c3c1=O)Oc1cc3ccccc3cc1-2 (centres unmarked) [compound 380] | 1800 nM |  | 
23 | 0.375 µM |  | CN1CCN(CCCNC(=O)c2cn3c4c(c(N5CC[C@@H](N)C5)c(F)cc4c2=O)Oc2cc4ccccc4cc2-3)CC1 [compound 538] | 280 nM |  | 
24 | 0.13 µM |  | O=C(NCCCN1CCOCC1)c1cn2c3cc4c(=O)c5ccccc5c(=O)c4cc3oc3c(NCCN4CCCC4)c(F)cc(c1=O)c32 [compound 591] | 3300 nM |  | 
25 | 0.375 µM |  | CN(C)CCCCNC(=O)c1cn2c3c(c(N4CC5CCCNC5C4)c(F)cc3c1=O)Oc1cc3ccccc3cc1-2 (centres unmarked) [compound 548] | 100 nM |  | 
26 | 0.375 µM |  | NC1CCN(c2c(F)cc3c(=O)c(C(=O)NCCN4CCOCC4)cn4c3c2Oc2cc3c(cc2-4)oc2ccccc23)C1 (centres unmarked) [compound 530] | 720 nM |  | 

Row | IC50 [1, 2] | IC50 [1, 4] | Compound | IC50 (HeLa cells; [3]) | IC50 (HeLa cells; [5]) | IC50 (HeLa cells; concentration at which 50% of antiproliferative cell response is seen, 3 days incubation, read-out: MTS Data Hella)
27 | 3 µM |  | CCN(CC)CCCC(C)NC(=O)c1cn2c3c(c(N4CCC(c5cnccn5)C4)c(F)cc3c1=O)Oc1cc3ccccc3cc1-2 (centres unmarked) [compound 27] | 3800 nM |  | 
28 | 0.375 µM |  | CN1CCCC1CCNC(=O)c1cn2c3c(c(N4CCC(N)C4)c(F)cc3c1=O)Oc1cc3c(cc1-2)Cc1ccccc1-3 (centres unmarked) [compound 537] | 290 nM |  | 
29 |  | 0.5 µM | CC1(C)CC(NC(=O)c2cn3c4c(c(N5CC6CCCNC6C5)c(F)cc4c2=O)Oc2cc4ccccc4cc2-3)CC(C)(C)N1 (centres unmarked) [compound 1642] |  | 180 nM | 
30 | 0.75 µM |  | O=C(CCNCCN1CCOCC1)N[C@@H]1CCN(c2c(F)cc3c(=O)c(C(=O)NCCN4CCCC4)cn4c3c2Oc2cc3c(cc2-4)oc2ccccc23)C1 [compound 358] | 5700 nM |  | 
31 | 0.18 µM |  | O=C(NCCN1CCCC1)c1cn2c3cc4c(cc3oc3c(NCCN5CCCC5)c(F)cc(c1=O)c32)c(=O)c1ccccc14 [compound 577] | 1100 nM |  | 
32 | 0.75 µM |  | CC1CCCCN1CCCNC(=O)c1cn2c3c(c(N4CCC(N)C4)c(F)cc3c1=O)Oc1cc3ccccc3cc1-2 (centres unmarked) [compound 387] | 330 nM |  | 
33 | 0.75 µM |  | CC(C)(C)OC(=O)NC1CCN(c2c(F)cc3c(=O)c(C(=O)NCCN4CCCC4)cn4c3c2Oc2cc3c(cc2-4)oc2ccccc23)C1 (centres unmarked) [compound 384] | 370 nM |  | 
34 | 0.75 µM |  | CC(=O)N[C@@H]1CCC(c2c(F)cc3c(=O)c(C(=O)NCCN4CCCC4)cn4c3c2Oc2cc3c(cc2-4)oc2ccccc23)C1 (some centres unmarked) [compound 370] | 3500 nM |  | 
35 | 0.75 µM |  | O=C(NCCN1CCCC1)c1cn2c3c(c(NCCCN4CCOCC4)c(F)cc3c1=O)Oc1cc3c(cc1-2)-c1ccccc1C3 [compound 373] | 3300 nM |  | 
36 | 2.5 µM |  | O=C(N[C@H]1C(O)O[C@H](CO)[C@H](O)[C@@H]1O)c1cn2c3c(c(NCCCN4CCOCC4)c(F)cc3c1=O)Oc1cc3c(cc1-2)oc1ccccc13 (some centres unmarked) [compound 37] | 2800 nM |  | 
37 | 0.375 µM |  | NC(N)=NCCCNC(=O)c1cn2c3c(c(N4CC[C@@H](N)C4)c(F)cc3c1=O)Oc1cc3ccccc3cc1-2 [compound 512] | 3100 nM |  | 
38 | 0.375 µM |  | O=C(NCCN1CCCC1)c1cn2c3c(c(N4CC5CCCNC5C4)ccc3c1=O)Oc1cc3ccccc3cc1-2 (centres unmarked) [compound 544] | 200 nM |  | 
39 | 0.375 µM |  | O=C(NCCCN1CCOCC1)c1cn2c3c(c(N4CC5CCCNC5C4)c(F)cc3c1=O)Oc1cc3ccccc3cc1-2 (centres unmarked) [compound 547] | 100 nM |  | 
40 | 0.32 µM |  | O=C(NCCC1CCCN1)c1cn2c3c(c(NCCCN4CCOCC4)c(F)cc3c1=O)Oc1cc3c(cc1-2)oc1ccccc13 (centres unmarked) [compound 562] | 850 nM |  | 
41 | 0.375 µM |  | CN1CCCC1CCNC(=O)c1cn2c3c(c(N4CC5CCCNC5C4)c(F)cc3c1=O)Oc1cc3ccccc3cc1-2 (centres unmarked) [compound 546] | 100 nM |  | 
42 | 0.18 µM |  | CN1CCCC1CCNc1c(F)cc2c(=O)c(C(=O)NCCN3CCCC3)cn3c4cc5oc6cc([N+](=O)[O-])ccc6[nH]c5cc4oc1c23 (centres unmarked) [compound 571] | 4800 nM |  | 
43 | 0.75 µM |  | CN(C)CCCCNC(=O)c1cn2c3cc4oc5cc([N+](=O)[O-])ccc5[nH]c4cc3oc3c(NCCN4CCCC4)c(F)cc(c1=O)c32 [compound 359] | 4800 nM |  | 
44 |  | 0.75 µM | CN1CCC(Nc2c(F)cc3c(=O)c(C(=O)NCCC4CCCN4C)cn4c3c2Oc2cc3ccccc3cc2-4)CC1 (centres unmarked) [compound 1690] |  | 310 nM | 
45 | 1.5 µM |  | O=C(NCCN1CCCC1)c1cn2c3c(c(N4CCC(c5cnccn5)C4)ccc3c1=O)Oc1cc3ccccc3cc1-2 (centres unmarked) [compound 303] | 2100 nM |  | 
46 | 0.75 µM |  | N[C@@H]1CCN(c2c(F)cc3c(=O)c(C(=O)NCCCN4CCOCC4)cn4c3c2Oc2cc3c(cc2-4)oc2ccccc23)C1 [compound 375] | 2700 nM |  | 
47 | 0.375 µM |  | CN1CCCC1CCNC(=O)c1cn2c3c(c(NCC4CC(C)(C)N(O)C4(C)C)c(F)cc3c1=O)Oc1cc3ccccc3cc1-2 (centres unmarked) [compound 513] | 3100 nM |  | 
48 | 0.375 µM |  | NC1CCN(c2c(F)cc3c(=O)c(C(=O)NCCCn4ccnc4)cn4c3c2Oc2cc3c(cc2-4)oc2ccccc23)C1 (centres unmarked) [compound 521] | 1700 nM |  | 
49 | 0.18 µM |  | CN(C)CCCCNC(=O)c1cn2c3cc4c(cc3oc3c(N5CC[C@H](N)C5)c(F)cc(c1=O)c32)c(=O)c1ccccc14 [compound 580] | 300 nM |  | 
50 | 0.25 µM |  | O=C(NCCN1CCOCC1)c1cn2c3c(c(N4CC5CCCNC5C4)c(F)cc3c1=O)Oc1cc3ccccc3cc1-2 (centres unmarked) [compound 566] | 30 nM |  | 
51 | 1.8 µM |  | CN1CCCC1CCNC(=O)c1cn2c3c(c(NCCCN4CCCC4=O)c(F)cc3c1=O)Oc1cc3ccccc3cc1-2 (centres unmarked) [compound 102] | 2200 nM |  | 

Row | Compound | IC50 [1, 2] | IC50 [1, 4] | IC50 (HeLa cells; [3]) | IC50 (HeLa cells; [5]) | IC50 (HeLa cells; concentration at which 50% of antiproliferative cell response is seen, 3 days incubation, read-out: MTS Data Hella)
52 | CN1CCCC1CCNC(=O)c1cn2c3c(c(N4CCC(c5cnccn5)C4)c(F)cc3c1=O)Oc1cc3ccccc3cc1-2 (centres unmarked) [compound 516] | 0.375 µM |  | 2300 nM |  | 
